Test results taken from patent US20020094993A1, “Compositions for repelling crawling insects” (priority 2000, published 2002).
Where two headings read alike, the source gives them in different places.

Test system: garden ants (Lasius niger)
Test: Repellent effect of active compounds on treated surfaces against ants
Type: in vivo
Set-up: pest or weed control: dose or concentration left out as unconfirmed
Experimental: Determination of a Repellent Effect of Active Compounds on Treated Surfaces against Ants
The tests are carried out in crystallizing dishes (Ø 30 cm, height 10 cm) using garden ants (Lasius niger). The walls of the dishes are treated with talc to prevent the test animals from escaping. The bottom of the dish is filled with a well-moistened layer of peat of a height of about 3-4 cm. At least 5 days before the beginning of the test, the dishes are populated with 300 ants which by the time the test starts will have built passages and hiding places. The dishes prepared in this manner can be used for several weeks as long as the substances examined are insecticide-free. The ants are fed with forest honey and crystalline sugar, and the feed is removed from the dishes during the tests.
Immediately before the start of the test, 2 glass plates (5×10 cm) are placed into the dish. One plate had been treated with active compound, the other remains untreated.
The activity of the ants can be monitored, for example, visually.
What is determined is the number of ants which, within a period of 15 minutes, cross the surface to be evaluated. The activity has to be so high that at least 100 contacts are achieved. If the activity is not high enough, the time for the test has to be extended accordingly. By evaluating the number of contacts on the treated and the untreated tile, a possible repellent action can be determined.
The results of the experiments with different compositions of repellent and additive are shown below. In the compositions, repellent and additive were mixed in a ratio of 100:100% by weight.

[1] = Lasius niger, 24 h, additive alone, after 1 day, read-out: % reduction of contacts after days
[2] = Lasius niger, 24 h, IR 3535/DEET table, after 1 day, read-out: % reduction of contacts after days
[3] = Lasius niger, 48 h, IR 3535/DEET table, after 2 days, read-out: % reduction of contacts after days
[4] = Lasius niger, 72 h, IR 3535/DEET table, after 3 days, read-out: % reduction of contacts after days
[5] = Lasius niger, 96 h, IR 3535/DEET table, after 4 days, read-out: % reduction of contacts after days
[6] = Lasius niger, 168 h, IR 3535/DEET table, after 7 days, read-out: % reduction of contacts after days
[7] = Lasius niger, 192 h, IR 3535/DEET table, after 8 days, read-out: % reduction of contacts after days
[8] = Lasius niger, 240 h, IR 3535/DEET table, after 10 days, read-out: % reduction of contacts after days

`COc1ccc(C=O)c(OC)c1` [2,4-Dimethoxybenzaldehyde] showed a pest or weed control [1] of 0%.
In the case of `CCCCN(CCC(=O)OCC)C(C)=O` [Ex. 1], the pest or weed control [2] is reported as 98%, the pest or weed control [3] is reported as 91% and the pest or weed control [4] is reported as 29%. For the same molecule, the pest or weed control [5] was 0%, the pest or weed control [6] was 0% and the pest or weed control [7] was 0%. It also gave a pest or weed control [8] of 0%.
`OCC(O)CO` [Glycerol] was tested, and the pest or weed control [1] was 0%.
`O=C(O)c1ccccc1O` [Salicylic acid] gave a pest or weed control at 500 mg/m2 (Lasius niger, 24 h, read-out: % reduction of contacts after days) of 3%.
`COc1cc(C=O)ccc1O` [Vanillin] was tested, and the pest or weed control [1] was 63%, the pest or weed control (Lasius niger, 48 h, additive alone, after 2 days, read-out: % reduction of contacts after days) was 46% and the pest or weed control (Lasius niger, 72 h, additive alone, after 3 days, read-out: % reduction of contacts after days) was 65%. For the same molecule, the pest or weed control (Lasius niger, 96 h, additive alone, after 4 days, read-out: % reduction of contacts after days) was 83%, the pest or weed control (Lasius niger, 168 h, additive alone, after 7 days, read-out: % reduction of contacts after days) was 51% and the pest or weed control (Lasius niger, 192 h, additive alone, after 8 days, read-out: % reduction of contacts after days) was 35%. For the same molecule, the pest or weed control (Lasius niger, 216 h, additive alone, after 9 days, read-out: % reduction of contacts after days) was 0%, the pest or weed control (Lasius niger, 240 h, additive alone, after 10 days, read-out: % reduction of contacts after days) was 0% and the “repellent effect of the additive on the ants” value (additive alone) was “slightly repellent effect”.
With `CCN(CC)C(=O)c1cccc(C)c1` [compound 5, N,N-diethyl-m-toluamide] the pest or weed control [2] was 100%, the pest or weed control [3] was 76% and the pest or weed control [4] was 0%. It also gave a pest or weed control [5] of 0%, a pest or weed control [6] of 27% and a pest or weed control [7] of 14%. It also gave a pest or weed control [8] of 0%.
With `O=Cc1ccc(O)cc1` [p-Hydroxybenzaldehyde] the pest or weed control [1] was 23%.
`O=C/C=C/c1ccccc1` [trans-Cinnamaldehyde] showed a pest or weed control [1] of 0%.
